Values quoted from earlier work in patent publication US20050169988A1, “High molecular weight, lipophilic, orally ingestible bioactive agents in formulations having improved bioavailability” (Shaklee Corporation, priority 2001, published 2005).

COC1=C(OC)C(=O)C(C/C=C(\C)CC/C=C(\C)CC/C=C(\C)CC/C=C(\C)CC/C=C(\C)CC/C=C(\C)CC/C=C(\C)CC/C=C(\C)CC/C=C(\C)CCC=C(C)C)=C(C)C1=O [CoQ10, 2,3-dimethoxy-5-methyl-6-decaprenyl-1,4-benzoquinone]
Solubility in water: practically insoluble in water
